Key:
Type in all cases: in vivo
corn (Zea mays) = assay: Test A pre-/postemergence plant response; settings: for Corn plant response rating: visual injury, 0 to 100 scale (0 no effect, 100 complete control), approx. ten days
Outline: (§1)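 Greenhouse trial, ~10 days. Soil (loam/sand) sprayed preemergence after seeding; emerged plants (1–2 leaf, 2–10 cm) sprayed postemergence in parallel. Response = visual injury vs untreated control, 0–100.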

[1] = tested on: large crabgrass (Digitaria sanguinalis); assay: Test A pre-/postemergence plant response; settings: for Crabgrass, Large plant response rating: visual injury, 0 to 100 scale (0 no effect, 100 complete control), approx. ten days
Outline: as §1

[2] = tested on: pigweed (Amaranthus retroflexus); assay: Test A pre-/postemergence plant response; settings: for Pigweed plant response rating: visual injury, 0 to 100 scale (0 no effect, 100 complete control), approx. ten days
Outline: as §1

[3] = tested on: giant foxtail (Setaria faberii); assay: Test A pre-/postemergence plant response; settings: for Foxtail, Giant plant response rating: visual injury, 0 to 100 scale (0 no effect, 100 complete control), approx. ten days
Outline: as §1

[4] = tested on: wheat (Triticum aestivum); assay: Test A pre-/postemergence plant response; settings: for Wheat plant response rating: visual injury, 0 to 100 scale (0 no effect, 100 complete control), approx. ten days
Outline: as §1

[5] = tested on: barnyardgrass (Echinochloa crus-galli); assay: Test A pre-/postemergence plant response; settings: for Barnyardgrass plant response rating: visual injury, 0 to 100 scale (0 no effect, 100 complete control), approx. ten days
Outline: as §1

[6] = tested on: velvetleaf (Abutilon theophrasti); assay: Test A pre-/postemergence plant response; settings: for Velvetleaf plant response rating: visual injury, 0 to 100 scale (0 no effect, 100 complete control), approx. ten days
Outline: as §1

[7] = tested on: morningglory (Ipomoea spp.); assay: Test A pre-/postemergence plant response; settings: for Morningglory plant response rating: visual injury, 0 to 100 scale (0 no effect, 100 complete control), approx. ten days
Outline: as §1

[8] = tested on: canarygrass (Phalaris minor); assay: Test B postemergence plant response; settings: Postemergence
Outline: (§2)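 Visual ratings from 0 (no effect) to 100 (complete control), made against controls 13–15 days after treatment, kept in a greenhouse. Compounds were applied postemergence to potted plants at the 1- to 4-leaf stage (2–18 cm).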

[9] = tested on: chickweed (Stellaria media); assay: Test B postemergence plant response; settings: Postemergence
Outline: as §2

[10] = tested on: windgrass (Apera spica-venti); assay: Test B postemergence plant response; settings: Postemergence
Outline: as §2

[11] = tested on: winter barley (Hordeum vulgare); assay: Test B postemergence plant response; settings: for Barley plant response rating (0 to 100 scale): 62 g ai/ha, postemergence, 0 is no effect, 100 is complete control; for Plant response rating, Barley: Postemergence
Outline: as §2

[12] = Postemergence, 125 g ai/ha, 0 to 100 scale where 0 is no effect and 100 is complete control
[13] = Preemergence, 125 g ai/ha, 0 to 100 scale, 0 = no effect, 100 = complete control
[14] = Preemergence, 500 g ai/ha, 0 to 100 scale, 0 = no effect, 100 = complete control
[15] = 31 g ai/ha, 0 to 100 scale (0 no effect, 100 complete control)
[16] = 125 g ai/ha, scale 0 to 100 (0 no effect, 100 complete control)
[17] = 250 g ai/ha, scale 0 to 100 (0 no effect, 100 complete control), 13 to 15 days

## O=C1CCCC(O)=C1C(=O)c1cnc(-c2cccs2)n(C2CCCCC2)c1=O [Compound 189]
Corn (Zea mays); [12]
  Plant response rating, Corn: 10
Corn (Zea mays); Postemergence, 500 g ai/ha
  Corn plant response rating: 40
Corn (Zea mays); [13]
  Plant response rating, Corn: 0
Corn (Zea mays); [14]
  Plant response rating, Corn: 0
[1]; [12]
  Plant response rating, Crabgrass, Large: 90
[1]; Postemergence, 500 g ai/ha
  Crabgrass, Large plant response rating: 90
[1]; [13]
  Plant response rating, Crabgrass, Large: 30
[1]; [14]
  Plant response rating, Crabgrass, Large: 80
[2]; [12]
  Plant response rating, Pigweed: 100
[2]; Postemergence, 500 g ai/ha
  Pigweed plant response rating: 100
[2]; [13]
  Plant response rating, Pigweed: 70
[2]; [14]
  Plant response rating, Pigweed: 100
[3]; [12]
  Plant response rating, Foxtail, Giant: 80
[3]; Postemergence, 500 g ai/ha
  Foxtail, Giant plant response rating: 90
[3]; [13]
  Plant response rating, Foxtail, Giant: 30
[3]; [14]
  Plant response rating, Foxtail, Giant: 60
[4]; [12]
  Plant response rating, Wheat: 0
[4]; Postemergence, 500 g ai/ha
  Wheat plant response rating: 0
[4]; [13]
  Plant response rating, Wheat: 0
[4]; [14]
  Plant response rating, Wheat: 0
[5]; [12]
  Plant response rating, Barnyardgrass: 90
[5]; Postemergence, 500 g ai/ha
  Barnyardgrass plant response rating: 90
[5]; [13]
  Plant response rating, Barnyardgrass: 20
[5]; [14]
  Plant response rating, Barnyardgrass: 90
[6]; [12]
  Plant response rating, Velvetleaf: 100
[6]; Postemergence, 500 g ai/ha
  Velvetleaf plant response rating: 100
[6]; [13]
  Plant response rating, Velvetleaf: 70
[6]; [14]
  Plant response rating, Velvetleaf: 100
[7]; [12]
  Plant response rating, Morningglory: 100
[7]; Postemergence, 500 g ai/ha
  Morningglory plant response rating: 100
[7]; [14]
  Plant response rating, Morningglory: 80
[8]; [15]
  Plant response rating, Canarygrass: 0
[8]; [16]
  Plant response rating, Canarygrass: 5
[8]; [17]
  Plant response rating, Canarygrass: 10
[9]; [15]
  Plant response rating, Chickweed: 98
[9]; [16]
  Plant response rating, Chickweed: 100
[9]; [17]
  Plant response rating, Chickweed: 100
[10]; [15]
  Plant response rating, Windgrass: 25
[10]; [16]
  Plant response rating, Windgrass: 60
[10]; [17]
  Plant response rating, Windgrass: 80
[11]; 13 to 15 days
  Barley plant response rating (0 to 100 scale): 5
[11]; [15]
  Plant response rating, Barley: 0
[11]; [16]
  Plant response rating, Barley: 15
[11]; [17]
  Plant response rating, Barley: 40

## CCCn1c(-c2cccc(Cl)c2)ncc(C(=O)C2=C(O)CCCC2=O)c1=O [Compound 190]
Corn (Zea mays); [12]
  Plant response rating, Corn: 0
Corn (Zea mays); Postemergence, 500 g ai/ha
  Corn plant response rating: 0
Corn (Zea mays); [13]
  Plant response rating, Corn: 0
Corn (Zea mays); [14]
  Plant response rating, Corn: 0
[1]; [12]
  Plant response rating, Crabgrass, Large: 90
[1]; Postemergence, 500 g ai/ha
  Crabgrass, Large plant response rating: 90
[1]; [13]
  Plant response rating, Crabgrass, Large: 60
[1]; [14]
  Plant response rating, Crabgrass, Large: 90
[2]; [12]
  Plant response rating, Pigweed: 100
[2]; Postemergence, 500 g ai/ha
  Pigweed plant response rating: 100
[2]; [13]
  Plant response rating, Pigweed: 70
[2]; [14]
  Plant response rating, Pigweed: 100
[3]; [12]
  Plant response rating, Foxtail, Giant: 80
[3]; Postemergence, 500 g ai/ha
  Foxtail, Giant plant response rating: 90
[3]; [13]
  Plant response rating, Foxtail, Giant: 60
[3]; [14]
  Plant response rating, Foxtail, Giant: 90
[4]; [12]
  Plant response rating, Wheat: 0
[4]; Postemergence, 500 g ai/ha
  Wheat plant response rating: 0
[4]; [13]
  Plant response rating, Wheat: 0
[4]; [14]
  Plant response rating, Wheat: 0
[5]; [12]
  Plant response rating, Barnyardgrass: 90
[5]; Postemergence, 500 g ai/ha
  Barnyardgrass plant response rating: 100
[5]; [13]
  Plant response rating, Barnyardgrass: 10
[5]; [14]
  Plant response rating, Barnyardgrass: 100
[6]; [12]
  Plant response rating, Velvetleaf: 100
[6]; Postemergence, 500 g ai/ha
  Velvetleaf plant response rating: 100
[6]; [13]
  Plant response rating, Velvetleaf: 70
[6]; [14]
  Plant response rating, Velvetleaf: 100
[7]; [12]
  Plant response rating, Morningglory: 100
[7]; Postemergence, 500 g ai/ha
  Morningglory plant response rating: 100
[7]; [14]
  Plant response rating, Morningglory: 70
[8]; [15]
  Plant response rating, Canarygrass: 0
[8]; [16]
  Plant response rating, Canarygrass: 25
[8]; [17]
  Plant response rating, Canarygrass: 55
[9]; [16]
  Plant response rating, Chickweed: 100
[9]; [17]
  Plant response rating, Chickweed: 100
[10]; [15]
  Plant response rating, Windgrass: 15
[10]; [16]
  Plant response rating, Windgrass: 65
[10]; [17]
  Plant response rating, Windgrass: 65
[11]; 13 to 15 days
  Barley plant response rating (0 to 100 scale): 5
[11]; [15]
  Plant response rating, Barley: 0
[11]; [16]
  Plant response rating, Barley: 40
[11]; [17]
  Plant response rating, Barley: 70

Reference: US8952024B2, “Herbicidal pyrimidone derivatives” (E I du Pont de Nemours and Company, priority 2009, dated 2015)
